How the values were obtained:
[1] = tested on: mouse model of stroke induced by middle cerebral artery occlusion (MCAO); assay: Grip strength (Example 1); type: in vivo, ICR mice; conditions: 10 mg/kg i.v. Bid from 30 min after infarction
Experimental: (§1) The administration of the respective treatments was started 30 minutes after the MCAO procedure of the mice.
(§2) Seventy-two (72) ICR mice received behavioral training after adaptive feeding period and before the operation to establish stroke models. The behavioral training included beam-walking and rotarod test. The experimental mice were then randomly divided into 6 groups according to the values of the body weight, with 12 mice in each test group as described in Table 1.
(§3) The mice were fasted overnight before modeling and were anesthetized with isoflurane. Right middle cerebral artery occlusion (MCAO) was induced in mice using the intraluminal filament technique to mimic focal cerebral ischemic stroke. After 1 hr, reperfusion was allowed by removing the occlusion. During the operation, a white light was used to maintain the mouse rectal temperature between 36.5° C.-37.0° C.
(§4) Administration of each treatment was performed 0.5 h after the infarction. The neurological function score was evaluated at 24 hrs and 48 hrs after reperfusion, as was assessed by beam-walking, grip strength, and rotarod tests. At 48 h after reperfusion, the whole brain tissue of all rats was harvested to assess the cerebral infarct area by TTC staining, as well as to measure brain volume and brain water content, two indicators of acute cerebral edema.

[2] = tested on: mouse model of stroke induced by middle cerebral artery occlusion (MCAO); assay: Brain volume (Example 1); type: in vivo, ICR mice; conditions: 10 mg/kg i.v. Bid from 30 min after infarction; 48 h after reperfusion
Experimental: as §1, §2, §3, §4

[3] = tested on: rat model of stroke induced by middle cerebral artery occlusion (MCAO); design: species or system SD rats; conditions: in vivo
Experimental: The first administration of the respective treatments was started 30 minutes (Day 1 of study) after the MCAO procedure of the rats. For the butylphthalide group, subsequent doses were administered every day after for 14 days. For the ALMB-0166 test groups, a second dose of the antibody was administered at Day 4 post-stroke (Day 4 of the study). Thirty-six (36) SD rats received behavioral training after adaptive feeding period and before the operation to establish stroke models. The behavioral training included beam-walking, grip and rotarod tests. The experimental rats were then randomly divided into 6 groups according to the body weight, with 6 rats in each test group as described in Table 15. The rats were fasted overnight before modeling and were anesthetized with isoflurane. […] The body weight of rats was recorded before the operation (Day 0 of study) and on Days 2, 4, 7, and 11 after the procedure. The rats were scored by the Longa method at Day 1 (24-hours) post-procedure. The neurological function was evaluated at Days 1, 2, 4, 7, and 14 after the procedure, and was assessed by beam-walking, grip strength, and rotarod tests. […] The total infarct volume was determined, and the infarct volume ratio was calculated by dividing the total infarct volume by the whole brain volume. […]

[4] = tested on: mouse model of stroke induced by middle cerebral artery occlusion (MCAO); assay: Brain water content (Example 1); type: in vivo, ICR mice; conditions: 10 mg/kg i.v. Bid from 30 min after infarction; 48 h after reperfusion
Experimental: as §1, §2, §3, §4

[5] = tested on: rat model of stroke induced by middle cerebral artery occlusion (MCAO); assay: Grip strength, dosing regimen (Example 4); type: in vivo, SD rats; conditions: 10 mg/kg (table label) i.v. Bid from 30 min after infarction
Experimental: The first administration of the respective treatments was started 30 minutes (Day 1 of study) after the MCAO procedure of the rats. For the butylphthalide group, subsequent doses were administered every day after for 14 days. For the ALMB-0166 test groups, a second dose of the antibody was administered at Day 4 post-stroke (Day 4 of the study). Thirty-six (36) SD rats received behavioral training after adaptive feeding period and before the operation to establish stroke models. The behavioral training included beam-walking, grip and rotarod tests. The experimental rats were then randomly divided into 6 groups according to the body weight, with 6 rats in each test group as described in Table 15. The rats were fasted overnight before modeling and were anesthetized with isoflurane. Right middle cerebral artery occlusion (MCAO) was induced in each rat using the intraluminal filament technique to mimic focal cerebral ischemic stroke. After 2 hrs, reperfusion was allowed by removing the occlusion. Administration of butylphthalide was performed 0.5 hrs after the infarction, and every day after the operation (14 days). Administration of ALMB-0166 and the vehicle treatment was performed at 0.5 hrs and at Day 4 after the operation. The body weight of rats was recorded before the operation (Day 0 of study) and on Days 2, 4, 7, and 11 after the procedure. The rats were scored by the Longa method at Day 1 (24-hours) post-procedure. The neurological function was evaluated at Days 1, 2, 4, 7, and 14 after the procedure, and was assessed by beam-walking, grip strength, and rotarod tests. At Day 14 after reperfusion, the whole brain tissue of all rats was harvested to assess the cerebral infarct area by TTC staining. The total infarct volume was determined, and the infarct volume ratio was calculated by dividing the total infarct volume by the whole brain volume. For calculating the infarct volume rate, the difference in infarct volume ratio between the model group and the corresponding administration group was divided by the infarct volume ratio of the model group.

[6] = tested on: mouse model of stroke induced by middle cerebral artery occlusion (MCAO); assay: Cerebral infarct volume by TTC staining (Example 1); type: in vivo, ICR mice; conditions: 10 mg/kg i.v. Bid from 30 min after infarction, 48 h after reperfusion
Experimental: as §1, §2, §3, §4

CCCCC1OC(=O)c2ccccc21 (stereo not shown) [Butylphthalide]
Grip Strength ([1]; 24 h): 206.29 ± 46.55^ g
Grip Strength ([1]; 48 h): 214.71 ± 34.19 g
Brain volume [2]: 0.413 ± 0.03 mL
Body weight compared to model test group [3]: No statistically significant difference
Brain water content [4]: 329.50 ± 23.60 mg
Brain water ratio [4]: 81.84 ± 1.30%
Grip Strength ([5]; Day 0): 504.65 g
Grip Strength ([5]; Day 2): 565.99 g
Grip Strength ([5]; Day 4): 520.36 g
Grip Strength ([5]; Day 7): 523.26 g
Grip Strength ([5]; Day 14): 585.23 g
Cerebral Infarction Volume [6]: 27.29 ± 13.07 %
Improvement rate of infarction ([6]; vs model): 43.02%

From patent US20250059264A1, “METHOD OF TREATING STROKE” (AlaMab Therapeutics, Inc., priority 2023, published 2025)
